For test [1], the target named is T1, Cannabinoid receptor 1 (Rattus norvegicus, UniProt P20272). The test is described as follows: Displacement of [3H]CP-55,940 from rat brain Cb1 receptor. For orientation: Loss of bound radioactivity is the signal in a displacement assay; it reports binding, not function.
Test [2] deals with T2, Cannabinoid receptor 2 (Homo sapiens, UniProt P34972). In words: Displacement of [3H]CP-55,940 from recombinant human Cb2 receptor expressed in HEK293 cells. The format is cell-based.
T2 sequence (P34972 whole entry): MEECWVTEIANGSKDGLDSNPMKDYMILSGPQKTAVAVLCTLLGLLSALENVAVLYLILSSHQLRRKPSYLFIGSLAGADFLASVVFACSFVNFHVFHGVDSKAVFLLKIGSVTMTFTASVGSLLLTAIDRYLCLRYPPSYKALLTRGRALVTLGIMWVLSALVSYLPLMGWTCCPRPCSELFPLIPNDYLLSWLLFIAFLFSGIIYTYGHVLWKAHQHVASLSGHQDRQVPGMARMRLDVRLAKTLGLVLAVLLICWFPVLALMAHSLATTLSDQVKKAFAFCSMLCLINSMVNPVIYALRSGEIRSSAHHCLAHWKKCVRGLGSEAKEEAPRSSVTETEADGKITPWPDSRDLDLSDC
Test [3] addresses Cannabinoid receptor 2 (Mus musculus, UniProt P47936). In words: Displacement of [3H]CP-55,940 from recombinant mouse Cb2 receptor expressed in HEK293 cells. The test is classed as cell-based.
The target in test [4] is T1, Cannabinoid receptor 1. In words: Agonist activity at recombinant rat Cb1 receptor expressed in HEK293 cells assessed as inhibition of forskolin-stimulated cAMP levels. The test is classed as functional, cell-based.
Test [5] deals with T2, Cannabinoid receptor 2. The test is described as follows: Agonist activity at recombinant human Cb2 receptor expressed in HEK293 cells assessed as inhibition of forskolin-stimulated cAMP levels. As to conditions: read-out: EC50; call rule not given here. The format is functional, cell-based. On the technique in general: Changes in cAMP serve as a functional read-out for many G protein-coupled receptors.

Test [6] addresses T2, Cannabinoid receptor 2. The test is described as follows: Agonist activity at recombinant human Cb2 receptor expressed in HEK293 cells assessed as inhibition of forskolin-stimulated cAMP levels relative to CP-55940. The format is functional, cell-based.
Test [7] addresses Cannabinoid receptor 1 (Rattus norvegicus) (UniProt P20272). In words: Agonist activity at recombinant rat Cb1 receptor expressed in HEK293 cells assessed as inhibition of forskolin-stimulated cAMP levels relative to control. The format is functional, cell-based.

Structures are written as SMILES.

One may read the Ki as the dissociation constant of the complex between target and ligand, obtained from inhibition or displacement. A word on the EC50: it is the concentration giving half of the maximal effect. As a reminder, the Emax is the size of the effect at its maximum, as opposed to the concentration needed.

Cannabinoid receptor 1 (Rattus norvegicus), sequence (P20272 whole entry): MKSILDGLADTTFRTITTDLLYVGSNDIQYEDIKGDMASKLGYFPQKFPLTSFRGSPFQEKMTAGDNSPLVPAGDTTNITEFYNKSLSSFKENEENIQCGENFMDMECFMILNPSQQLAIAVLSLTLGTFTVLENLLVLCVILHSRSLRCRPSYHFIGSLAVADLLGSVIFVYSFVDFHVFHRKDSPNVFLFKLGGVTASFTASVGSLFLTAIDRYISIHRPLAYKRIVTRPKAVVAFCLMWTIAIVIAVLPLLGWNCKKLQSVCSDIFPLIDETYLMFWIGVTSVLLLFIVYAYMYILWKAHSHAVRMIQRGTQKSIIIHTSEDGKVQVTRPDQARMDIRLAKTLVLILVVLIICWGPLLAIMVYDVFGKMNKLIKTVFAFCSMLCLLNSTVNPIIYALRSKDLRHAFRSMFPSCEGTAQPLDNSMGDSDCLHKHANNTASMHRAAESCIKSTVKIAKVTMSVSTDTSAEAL
T1 sequence (P20272 whole entry): as above
Cannabinoid receptor 2 (Mus musculus, UniProt P47936), sequence (P47936 whole entry): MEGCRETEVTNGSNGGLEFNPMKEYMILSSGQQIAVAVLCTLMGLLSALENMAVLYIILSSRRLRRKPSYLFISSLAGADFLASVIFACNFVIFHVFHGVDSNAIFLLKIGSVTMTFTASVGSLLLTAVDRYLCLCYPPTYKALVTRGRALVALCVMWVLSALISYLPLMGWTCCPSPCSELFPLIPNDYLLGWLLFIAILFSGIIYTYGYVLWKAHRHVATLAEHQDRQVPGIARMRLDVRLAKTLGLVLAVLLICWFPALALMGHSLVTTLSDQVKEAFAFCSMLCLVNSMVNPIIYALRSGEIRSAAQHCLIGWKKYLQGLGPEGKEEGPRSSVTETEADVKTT

In the case of `CC1=CC[C@H]2[C@H](C1)c1c(O)cc(/C(C)=N\OCCCc3ccccc3)cc1OC2(C)C`, the values for the Ki in test [1], in test [2] and in test [3] were 5 nM, 2.9 nM and 2.8 nM, respectively. In addition, the 50% effective concentration (EC50) result is “Not Active” in test [4] (hek293) and 1.7 nM in test [5]. For the same compound, the Emax in test [6] stood at 98%.

Turning to `CC1=CC[C@H]2[C@H](C1)c1c(O)cc(/C(C)=N/OCCCc3ccccc3)cc1OC2(C)C`, the inhibition constant Ki in test [1] came to 3 nM; in test [2], 2.7 nM; in test [3], 3.8 nM. Further, the EC50 amounted to 2.6 nM in test [4] (read-out: EC50) and 1.65 nM in test [5]. In addition, the Emax in test [7] is 27%; in test [6], 35%.

Turning to `CC1=CC[C@H]2[C@H](C1)c1c(O)cc(/C(C)=N/OCCCC(F)(F)F)cc1OC2(C)C`, the Ki came out at 0.3 nM in test [1], 3 nM in test [2] and 0.5 nM in test [3]. Moreover, the EC50 in test [4] (read-out: EC50) was 0.4 nM; in test [5], 1 nM. For the same compound, the maximal effect (Emax) in test [7] is 69%; in test [6], 43%.

`CCCCCCC(C)(C)c1cc(O)c2c(c1)OC(C)(C)[C@H]1CC=C(C)C[C@H]21`: the values for the inhibitory constant (Ki) in test [1], in test [2] and in test [3] were 0.77 nM, 9 nM and 3.2 nM, respectively.

As for `CC1=CC[C@H]2[C@H](C1)c1c(O)cc(/C(C)=N/OCCOc3ccccc3)cc1OC2(C)C`, the Ki was 11.4 nM in test [1], 6.2 nM in test [2] and 3.7 nM in test [3]. The EC50 in test [4] (read-out: EC50) came out at 0.9 nM; in test [5] it was 49.6 nM. For the same compound, the Emax turned out to be 56% in test [7] and 99% in test [6].

Regarding `CC1=CC[C@H]2[C@H](C1)c1c(O)cc(/C(C)=N/OCCCn3ccnc3)cc1OC2(C)C`, the Ki stood at 1.2 nM in test [1], 3.7 nM in test [2] and 1.5 nM in test [3].

As to `CCCC(C)O/N=C(\C)c1cc(O)c2c(c1)OC(C)(C)[C@H]1CC=C(C)C[C@H]21` (mixture of isomers), the Ki is 2 nM in test [1], 24 nM in test [2] and 43.6 nM in test [3]. In addition, the EC50 in test [4] (read-out: EC50) worked out at 22.4 nM; in test [5], 41.3 nM. The Emax in test [7] stood at 48%; in test [6], 411%.

In the case of `CCO/N=C(\C)c1cc(O)c2c(c1)OC(C)(C)[C@H]1CC=C(C)C[C@H]21`, the values for the inhibition constant Ki in test [1] and in test [3] were 66.1 nM and 74.8 nM, respectively.

With `CC1=CC[C@H]2[C@H](C1)c1c(O)cc(/C(C)=N/OCCN3CCOCC3)cc1OC2(C)C`, the Ki in test [1] stood at 7 nM; in test [2] it was 0.7 nM; in test [3], 1.8 nM.

The values above are taken from ChEMBL document CHEMBL4229545, “Oximes short-acting CB1 receptor agonists” (Bioorg Med Chem, 2018).
